Data published in patent US20240024338A1, “CARBIDOPA AND L-DOPA PRODRUGS AND METHODS OF USE” (AbbVie Inc., priority 2016, published 2024).

Key:
[1] = In vitro bioconversion study (intestinal S9 fractions), human; format: in vitro ADME; settings: human intestinal S9 fraction 1 mg/mL, prodrug 2.5 μg/mL, 37° C.
Source text: (§1) The t1/2 appeared to be shorter in human intestinal S9 than in rat intestinal S9.

[2] = In vitro bioconversion study (blood), mini-pig; format: in vitro ADME; settings: prodrug 2.5 μg/mL, 37° C.
Procedure: (§2) The in vitro bioconversion of the L-dopa phosphate prodrugs to L-dopa and the carbidopa phosphate prodrugs to carbidopa was evaluated in several studies. In brief, the L-dopa and carbidopa phosphate prodrugs (2.5 μg/mL) were incubated with tissue homogenate or fractions from rats, mini-pigs, or human, including blood, skin homogenate (3 mg/mL), liver microsomes (1 mg/mL), liver S9 fraction (1 mg/mL), kidney S9 fraction (1 mg/mL), and intestine S9 fractions (1 mg/mL). The reaction mixtures were incubated at 37° C. for 5 to 6 time points within 1 to 2 hours. At the end of each time point, the reaction mixtures were quenched by 2 to 3 volumes of 5% trichloroacetic acid in water. After quenching, the mixtures were centrifuged at 3000 rpm for 20 minutes, and the supernatants were analyzed by LC-MS for quantitation of the prodrug, L-dopa or carbidopa. The in vitro bioconversion was assessed by monitoring both time-dependent depletion of the prodrug and the formation of the corresponding L-dopa or carbidopa.

rats = assay: Local tolerability in rats, single SC bolus dose; format: in vivo; settings: concentrations up to 125 mg/mL
[3] = In vitro bioconversion study (blood), human; format: in vitro ADME; settings: prodrug 2.5 μg/mL, 37° C.
Procedure: as §2

[4] = In vitro bioconversion study, kidney S9 fraction, human; format: in vitro ADME; settings: human kidney S9 fraction 1 mg/mL, prodrug 2.5 μg/mL, 37° C.
Procedure: as §2

[5] = In vitro bioconversion study (skin homogenates), rat; settings: rat skin homogenate 3 mg/mL, prodrug 2.5 μg/mL, 37° C.
[6] = 1-Day stability study, diphosphate combination solution; format: physicochemical; settings: combination solution: L-dopa 3′,4′-diphosphate 35 mg/mL + carbidopa 3′,4′-diphosphate 8.7 mg/mL, pH 6.2, room temperature, nitrogen purged
Procedure: In addition, a solution combining the diphosphates of each compound (L-dopa 3′, 4′-diphosphate at 35 mg/mL and carbidopa 3′, 4′-diphosphate at 8.7 mg/mL) was monitored over one day at room temperature. This sample was purged with nitrogen to remove oxygen.

[7] = In vitro bioconversion study, kidney S9 fraction, rat; format: in vitro ADME; settings: rat kidney S9 fraction 1 mg/mL, prodrug 2.5 μg/mL, 37° C.
Procedure: as §2

[8] = In vitro bioconversion study, liver S9 fraction, human; format: in vitro ADME; settings: human liver S9 fraction 1 mg/mL, prodrug 2.5 μg/mL, 37° C.
Procedure: as §2

[9] = In vitro bioconversion study, liver S9 fraction, rat; format: in vitro ADME; settings: rat liver S9 fraction 1 mg/mL, prodrug 2.5 μg/mL, 37° C.
Procedure: as §2

[10] = In vitro bioconversion study, human liver microsomes; format: in vitro ADME; settings: human liver microsomes 1 mg/mL, prodrug 2.5 μg/mL, 37° C.
Procedure: as §2

[11] = In vitro bioconversion study (blood), rat; settings: prodrug 2.5 μg/mL, 37° C.
Procedure: The in vitro bioconversion of the L-dopa phosphate prodrugs to L-dopa and the carbidopa phosphate prodrugs to carbidopa was evaluated in several studies. […] The reaction mixtures were incubated at 37° C. for 5 to 6 time points within 1 to 2 hours. At the end of each time point, the reaction mixtures were quenched by 2 to 3 volumes of 5% trichloroacetic acid in water. After quenching, the mixtures were centrifuged at 3000 rpm for 20 minutes, and the supernatants were analyzed by LC-MS for quantitation of the prodrug, L-dopa or carbidopa. The in vitro bioconversion was assessed by monitoring both time-dependent depletion of the prodrug and the formation of the corresponding L-dopa or carbidopa.

[12] = In vitro bioconversion study (intestinal S9 fractions), rat; format: in vitro ADME; settings: rat intestinal S9 fraction 1 mg/mL, prodrug 2.5 μg/mL, 37° C.
Source text: as §1

[13] = In vitro bioconversion study (skin homogenates), mini-pig; settings: mini-pig skin homogenate 3 mg/mL, prodrug 2.5 μg/mL, 37° C.
[14] = 1-Day stability study of prodrugs in aqueous solution; format: physicochemical; settings: aqueous solution 80 μg/mL, ambient storage, pH 7.0
Procedure: The L-dopa phosphate prodrugs and the carbidopa phosphate prodrugs were evaluated in a stability study.

[15] = In vitro bioconversion study, liver S9 fraction, mini-pig; format: in vitro ADME; settings: mini-pig liver S9 fraction 1 mg/mL, prodrug 2.5 μg/mL, 37° C.
Procedure: as §2

[16] = Phosphate prodrug solubility study in water; format: physicochemical; settings: water, ambient, visual assessment, pH 5.5, Amorphous
Procedure: The L-dopa phosphate prodrugs and the carbidopa phosphate prodrugs were evaluated in a solubility study. The solubility values of the phosphate prodrugs in water under ambient conditions were determined by visual assessment. Table 13-A reports the results of the study, including the measured values for L-dopa and carbidopa.

[17] = In vitro bioconversion study (skin homogenates), human; settings: human skin homogenate 3 mg/mL, prodrug 2.5 μg/mL, 37° C.
[18] = listed as diphosphate prodrug of L-dopa

In the case of N[C@@H](Cc1ccc(OP(=O)(O)O)c(OP(=O)(O)O)c1)C(=O)O [L-dopa 3′,4′-diphosphate], the “L-Dopa or Carbidopa Formation” value [1] is reported as “Yes”, the T1/2 [1, 18] is reported as “rapidly dephosphorylated” and the “L-Dopa or Carbidopa Formation” value [2] is reported as “Yes”. For the same compound, the T1/2 [2] was 125 min, the “clinical signs or microscopic findings of local intolerance” value (rats) was “no adverse clinical signs or microscopic findings indicative of local intolerance” and the “L-Dopa or Carbidopa Formation” value [3] was “Yes”. For the same compound, the T1/2 [3] was 138 min, the “stability and formation of L-dopa or carbidopa” value (from here on “stability and formation”) [4] was “stable without formation of L-dopa or carbidopa observed” and the “L-Dopa or Carbidopa Formation” value [5] was “No”. The T1/2 [5] was “stable”, the “% Remaining After One Day” value [6] was >99% and the “stability and formation” value [7] was “stable without formation of L-dopa or carbidopa observed”. For the same compound, the “stability and formation” value [8] was “stable without formation of L-dopa or carbidopa observed”, the “stability and formation” value [9] was “stable without formation of L-dopa or carbidopa observed” and the “stability and formation” value [10] was “stable without formation of L-dopa or carbidopa observed”. For the same compound, the “L-Dopa or Carbidopa Formation” value [11] was “Yes”, the T1/2 [11] was 6 min and the “L-Dopa or Carbidopa Formation” value [12] was “Yes”. The T1/2 [12, 18] was “rapidly dephosphorylated”, the “L-Dopa or Carbidopa Formation” value [13] was “No” and the T1/2 [13] was “stable”. The “% Remaining After One Day” value [14] was >99%, the “stability and formation” value [15] was “stable without formation of L-dopa or carbidopa observed” and the Solubility [16] was >330 mg/mL. The “L-Dopa or Carbidopa Formation” value [17] was “No” and the T1/2 [17] was “stable”.
